The source of these data is ChEMBL document CHEMBL1212868, “Synergistic experimental/computational studies on arylazoenamine derivatives that target the bovine viral diarrhea virus RNA-dependent RNA polymerase” (Bioorg Med Chem, 2010).

Data set [1] deals with Bovine viral diarrhea virus 1. The data set is described as follows: Antiviral activity against BVDV infected in […] cells assessed as inhibition of virus-induced cytopathogenicity by MTT assay. It is filed as functional, organism-based. Conditions: Bovine viral diarrhea virus isolates and strains. For orientation: Cytopathic effects are the visible damage that an infection or toxin causes in cultured cells.

A short description of data set [2]: Inhibition of BVDV RNA dependent NS5B polymerase. On the set-up: species or system Bovine viral diarrhea virus 1.
Data set [3] can be described thus: Inhibition of hepatitis C virus RNA dependent NS5B polymerase. On the set-up: species or system Hepacivirus hominis.
Data set [4] can be described thus: Cytotoxicity against […] cells by MTT assay. It is filed as cell-based. Background: Formazan colour is commonly taken as a measure of viable cells.
Data set [5] can be described thus: Selectivity index, ratio of CC50 for […] cells to EC50 for BVDV.
For data set [6], the system named is Bovine viral diarrhea virus 1. The data set can be described thus: Antiviral activity against BVDV bearing mutant RdRp infected in […] cells assessed as inhibition of virus-induced cytopathogenicity by MTT assay. The settings on record: Bovine viral diarrhea virus isolates and strains. It is filed as functional, organism-based.

In the case of `CN1CCC/C1=C\N=N\c1ccc(Cl)cc1`, the 50% effective concentration (EC50) in data set [1] amounted to 21 µM.

Regarding `Cc1ccc(/N=N/C=C2\CCCN2Cc2ccccc2)cc1`, the EC50 in data set [1] was > 22 µM.

As to `CN1CCC/C1=C\N=N\c1ccccc1`, the EC50 in data set [1] stood at 10 µM.

On to `Clc1cccc(/N=N/C2=C3CCCCN3CCC2)c1`, for which the EC50 in data set [1] was > 20 µM. In the case of `CN1C=C(/N=N/c2cccc([N+](=O)[O-])c2)CCC1`, the IC50 came out at 32 µM in data set [2] and 30 µM in data set [3]. Moreover, the CC50 in data set [4] was > 100 µM. Further, in data set [1], the EC50 came to 0.8 µM. The “Ratio CC50/EC50” value in data set [5] was 125.

As for `CN1CCC/C1=C\N=N\c1ccc(F)c(C(F)(F)F)c1`, in data set [1], the EC50 was found to be 100 µM.

`FC(F)(F)c1cc(/N=N/C2=C3CCCN3CCC2)ccc1Cl`: the half-maximal effective concentration (EC50) in data set [1] is > 21 µM. Regarding `CC(=O)Nc1ccc(-c2nc3cc([N+](=O)[O-])ccc3[nH]2)cc1`, the CC50 in data set [4] is > 100 µM. The EC50 in data set [1] is 0.8 µM; in data set [6] it was > 100 µM. Consider `CN1C=C(/N=N/c2ccc(Cl)c(C(F)(F)F)c2)CCC1`, for which the EC50 in data set [1] is > 28 µM. Turning to `CN1C=C(/N=N/c2ccc(Cl)c([N+](=O)[O-])c2)CCC1`, the EC50 in data set [1] is > 61 µM. For the compound `Fc1ccc(/N=N/C2=C3CCCCN3CCC2)cc1C(F)(F)F`, the concentration for a half-maximal effect (EC50) in data set [1] is > 100 µM.

For `Clc1ccccc1/N=N/C1=C2CCCCN2CCC1`, in data set [1], the 50% effective concentration (EC50) is > 100 µM.

For `c1ccc2c(/N=N/C3=C4CCCN4CCC3)nncc2c1`, the half-maximal effective concentration (EC50) in data set [1] is > 100 µM. Still for that read-out and setting: the same measure for `CN1C=C(/N=N/c2ccc([N+](=O)[O-])cc2)CCC1`: 11 µM; for `Clc1ccc(/N=N/C2=C3CCCCN3CCC2)cc1`: > 60 µM.

As for `C(/N=N/c1ccccc1)=C1/CCCN1Cc1ccccc1`, the EC50 in data set [1] is > 74 µM. Regarding `CN1C=C(/N=N/c2ccc(Br)c(C(F)(F)F)c2)CCC1`, the EC50 in data set [1] turned out to be 40 µM.

For `CN1C=C(/N=N/c2ccccc2Cl)CCC1`, the 50% effective concentration (EC50) in data set [1] was 100 µM.

Turning to `CN1CCC/C1=C\N=N\c1cccc(C(F)(F)F)c1`, the 50% effective concentration (EC50) in data set [1] turned out to be 21 µM. Take `O=[N+]([O-])c1cccc(/N=N/C2=C3CCCCN3CCC2)c1`: the half-maximal effective concentration (EC50) in data set [1] is > 100 µM. Take `CN1C=C(/N=N/c2ccccc2)CCC1`: the EC50 in data set [1] was > 100 µM. In the case of `CN1C=C(/N=N/c2ccc(F)c(C(F)(F)F)c2)CCC1`, the 50% effective concentration (EC50) in data set [1] was > 100 µM. `CN1C=C(/N=N/c2cccc(Br)c2)CCC1`: the EC50 in data set [1] worked out at 19 µM.

On to `CN1C=C(/N=N/c2ccc(Cl)cc2)CCC1`, for which the EC50 in data set [1] was > 58 µM. Regarding `CN1CCC/C1=C\N=N\c1ccc([N+](=O)[O-])cc1`, the EC50 in data set [1] is 19 µM. Turning to `O=[N+]([O-])c1ccc(/N=N/C2=C3CCCCN3CCC2)cc1`, the EC50 in data set [1] is 86 µM. Consider `CN1C=C(/N=N/c2c(F)c(F)c(F)c(F)c2F)CCC1`, for which the EC50 in data set [1] was > 100 µM. As for `O=[N+]([O-])c1cccc(/N=N/C2=C3CCCN3CCC2)c1`, in data set [1], the concentration giving a half-maximal response (EC50) is > 68 µM.

In data set [4], `Nc1ccc(-c2nc3cc([N+](=O)[O-])ccc3[nH]2)cc1` yielded a CC50 of 79 µM. Further, the values for the EC50 in data set [1] and in data set [6] were 1.5 µM and > 79 µM, respectively. With `CN1CCC/C1=C\N=N\c1c(F)c(F)c(F)c(F)c1F`, in data set [1], the EC50 is > 100 µM.

Take `Fc1ccc(/N=N/C2=C3CCCCN3CCC2)cc1`: the concentration for a half-maximal effect (EC50) in data set [1] was > 56 µM. Still for that read-out and setting: with `C[C@@]1(O)[C@H](O)[C@@H](CO)O[C@H]1n1cnc2c(=O)[nH]c(N)nc21` [2'-B-METHYL-GUANOSINE] the figure was 1.7 µM; with `CN1C=C(/N=N/c2ccc(Br)cc2)CCC1`, 60 µM; with `Cc1ccc(/N=N/C=C2\CCCN2C)cc1`, 20 µM.

Take `CN1CCC/C1=C\N=N\c1ccc(F)cc1`: in data set [1], the EC50 came out at 18 µM.

Turning to `CN1CCC/C1=C\N=N\c1cccc(Br)c1`, the EC50 in data set [1] amounted to 9 µM. Consider `Clc1ccc(/N=N/C=C2\CCCN2Cc2ccccc2)cc1`, for which the half-maximal effective concentration (EC50) in data set [1] was > 18 µM. Regarding `CC(=O)Nc1ccc(-c2nc3cc(Cl)c(Cl)cc3[nH]2)cc1`, in data set [4], the CC50 turned out to be 58 µM. For the same compound, the figures for the concentration for a half-maximal effect (EC50) in data set [1] and in data set [6] were 1 µM and > 100 µM, respectively. As to `O=[N+]([O-])c1cc(/N=N/C2=C3CCCCN3CCC2)ccc1Cl`, the EC50 in data set [1] is > 18 µM. As to `CN1C=C(/N=N/c2cccc(Cl)c2)CCC1`, in data set [1], the EC50 amounted to 12 µM. Turning to `Cc1ccc(/N=N/C2=CN(C)CCC2)cc1`, the EC50 in data set [1] was > 100 µM. For the compound `COc1ccc(/N=N/C=C2\CCCN2C)cc1`, the half-maximal effective concentration (EC50) in data set [1] is 18 µM. Take `c1ccc2c(/N=N/C3=C4CCCN4CCC3)cccc2c1`: the EC50 in data set [1] is 3.5 µM. Same read-out and setting: the same measure for `Clc1ccc(/N=N/C2=C3CCCN3CCC2)cc1`: > 30 µM; for `FC(F)(F)c1cccc(/N=N/C2=C3CCCCN3CCC2)c1`: > 8 µM; for `FC(F)(F)c1cc(/N=N/C2=C3CCCCN3CCC2)ccc1Br`: 61 µM. On the same count and under the same terms, the same measure for `FC(F)(F)c1cc(/N=N/C2=C3CCCCN3CCC2)cc(C(F)(F)F)c1`: > 31 µM; for `CN1C=C(/N=N/c2ccc(F)cc2)CCC1`: > 48 µM; for `CN1C=C(/N=N/c2cc(C(F)(F)F)cc(C(F)(F)F)c2)CCC1`: > 64 µM. As for `Clc1ccc(/N=N/C2=C3CCCCN3CCC2)cc1Cl`, the concentration for a half-maximal effect (EC50) in data set [1] was > 30 µM. Still for that read-out and setting: the same measure for `Brc1ccc(/N=N/C2=C3CCCCN3CCC2)cc1`: > 59 µM; for `Clc1ccc(/N=N/C=C2\CCCN2Cc2ccccc2)cc1Cl`: > 79 µM; for `CN1C=C(/N=N/c2ccc(Cl)c(Cl)c2)CCC1`: 7 µM. As for `Clc1ccc(/N=N/C2=C3CCCN3CCC2)cc1Cl`, in data set [1], the EC50 is > 67 µM.

`Brc1cccc(/N=N/C2=C3CCCCN3CCC2)c1`: the 50% effective concentration (EC50) in data set [1] was > 10 µM. For `CN1C=C(/N=N/c2cccc3ccccc23)CCC1`, the concentration for half-maximal inhibition (IC50) was determined as 28 µM in data set [2] and 55 µM in data set [3]. Besides, the CC50 in data set [4] is > 100 µM. Also, the results for the EC50 in data set [1] and in data set [6] were 5 µM and > 100 µM, respectively. Consider `CN1CCC/C1=C\N=N\c1ccc(Br)cc1`, for which the EC50 in data set [1] turned out to be 11 µM. For the compound `CN1CCC/C1=C\N=N\c1cc(C(F)(F)F)cc(C(F)(F)F)c1`, the EC50 in data set [1] was > 36 µM. Take `FC(F)(F)c1cc(/N=N/C=C2\CCCN2Cc2ccccc2)ccc1Cl`: in data set [1], the EC50 is > 14 µM.

For the compound `CN1CCC/C1=C\N=N\c1cccc([N+](=O)[O-])c1`, the half-maximal effective concentration (EC50) in data set [1] came to 5.5 µM.

As to `CN1CCC/C1=C\N=N\c1ccc(Br)c(C(F)(F)F)c1`, the EC50 in data set [1] is 46 µM. As to `c1ccc2c(/N=N/C3=C4CCCCN4CCC3)cccc2c1`, the concentration giving a half-maximal response (EC50) in data set [1] came to 6 µM. Regarding `FC(F)(F)c1cc(/N=N/C2=C3CCCCN3CCC2)ccc1Cl`, in data set [1], the concentration for a half-maximal effect (EC50) was > 35 µM. `CN1CCC/C1=C\N=N\c1ccc(Cl)c(Cl)c1`: the EC50 in data set [1] worked out at 16 µM.

Turning to `CN1C=C(/N=N/c2cccc(C(F)(F)F)c2)CCC1`, the half-maximal effective concentration (EC50) in data set [1] was determined as 90 µM.

Usually EC50 stands for the concentration that produces a half-maximal response. One may read the IC50 as the concentration needed to halve the response being measured. A high value points to weaker potency. The CC50 is the concentration that lowers cell viability or growth by half. The low end stands for harm at low concentration, the high end for better tolerance by the cells.
